US9309276B2, “Synthetic lipid A derivative” (University of Georgia Research Foundation, Inc., priority 2007, dated 2016)

What was measured:
MM6 cells = assay: Cell viability of MM6 cells by trypan blue exclusion; assay type: cell-based, human; conditions: 5.5 h treatment
Mono Mac 6 (MM6) cells = assay: TNF-α induction in human monocytic Mono Mac 6 cells (ELISA); assay type: cell-based; conditions: 5.5 h at 37° C., increasing concentrations
Protocol: MM6 cells were incubated for 5.5 h at 37° C. with increasing concentrations of E. coli LPS and synthetic compounds 103 and 104 as indicated. TNF-α protein in cell supernatants was measured using ELISA. (103 and 104 show background values and therefore overlap in the figure).
We have chemically synthesized the tetra-acylated lipid As 103 and 104 (FIG. 8) to study whether LPS derived from P. gingivalis can induce cellular activation in a TLR2- or TLR4-dependent manner. Furthermore, there are indications that LPS of P. gingivalis can antagonize cytokine production induced by enteric LPS and therefore these properties have also been studied. […]
Mono Mac 6 (MM6) cells, provided by Dr. H. W. L. Ziegler-Heitbrock (Institute for Inhalationbiology, Munich, Germany), were cultured in RPMI 1640 medium with L-glutamine (BioWhittaker) supplemented with penicillin (100 u mL^−1)/streptomycin (100 μg mL^−1; Mediatech, OPI supplement (1%; Sigma; containing oxaloacetate, pyruvate and bovine insulin) and fetal calf serum (FCS; 10%; HyClone). New batches of frozen cell stock were grown up every 2 months and growth morphology evaluated. Before each experiment, MM6 cells were incubated with calcitriol (10 ng mL^−1; Sigma) for 2 days to differentiate into macrophage like cells. […]

SMILES	cell viability, cellular exclusion of trypan blue (MM6 cells)	TNF-α induction (in words) (Mono Mac 6 (MM6) cells)
CCCCCCCCCCCCCCCC(=O)O[C@H](CCCCCCCCCCCC(C)C)CC(=O)N[C@H]1[C@H](OC[C@H]2O[C@H](OP(=O)(O)O)[C@H](NC(=O)C[C@H](O)CCCCCCCCCCCC(C)C)[C@@H](OC(=O)C[C@H](O)CCCCCCCCCCCCC)[C@@H]2O)O[C@H](CO)[C@@H](O)[C@@H]1O [Compound 103, 6-O-{2-Deoxy-2-[(R)-3-hexadecanoyloxy-15-methyl-hexadecanoylamino]-β-D-glucopyranosyl}-3-O—[(R)-3-hydroxy-hexadecanoyl]-2-deoxy-2-[(R)-3-hydroxy-15-methyl-hexadecanoylamino]-α-D-glucopyranose 1-phosphate]	did not affect cell viability	did not exhibit any activity
CCCCCCCCCCCCCCCC(=O)O[C@H](CCCCCCCCCCCC(C)C)CC(=O)N[C@H]1[C@H](OC[C@H]2O[C@H](OP(=O)(O)O)[C@H](NC(=O)C[C@H](O)CCCCCCCCCCCC(C)C)[C@@H](O)[C@@H]2O)O[C@H](CO)[C@@H](O)[C@@H]1ONC(=O)C[C@H](O)CCCCCCCCCC(C)C [Compound 104, 6-O-{2-Deoxy-2-[(R)-3-hexadecanoyloxy-15-methyl-hexadecanoylamino]-3-O—[(R)-3-hydroxy-13-methyl-tetradecanoylamino]-β-D-glucopyranosyl}-2-deoxy-2-[(R)-3-hydroxy-15-methyl-hexadecanoylamino]-α-D-glucopyranose 1-phosphate]	did not affect cell viability	did not exhibit any activity
